From US20180243421A1, “IMMUNOSTIMULATING AGENT” (AJINOMOTO CO., INC., priority 2015, published 2018) come the findings set out here.

Holding throughout (type): in vivo, BALB/c mice
Assay [1] relates to anti-OVA-specific IgG2a subclass antibody. Description: Adjuvant activity: anti-OVA-specific IgG2a subclass antibody in serum after secondary immunization. On the procedure: Two weeks from the secondary immunization, the whole blood was extracted under anesthesia, and the obtained serum sample was measured for anti-OVA-specific IgG1 subclass antibody.
Measurement Method of anti-OVA-specific IgG2a Subclass Antibody
To a 96 well plate was added 5 μg/ml OVA at 100 μl/well, and the mixture was incubated at 4° C. overnight. After incubation, the mixture was washed three times with 200 μl of PBS-T (PBS+0.05%(v/v) Tween 20) per well, and blocked with 100 μl of 5% FCS/PBS solution per well at room temperature for 1 to 2 hr. Thereafter, the mixture was washed three times with PBS-T (200 μl/well), a diluted serum sample (100 μl/well) or the same amount of 5% FCS/PBS solution as a control was added, and the mixture was incubated at 37° C. for 1 hr. Thereafter, the mixture was washed five times with PBS-T (200 μl/well), a diluted biotinylated anti-mouse IgG2a antibody (100 μl/well) was added, and the mixture was incubated at 37° C. for 45 min. Thereafter, the mixture was washed five times with PBS-T (200 μl/well), a diluted anti-biotin-HRP antibody was added (100 μl/well), and the mixture was incubated at 37° C. for another 30 min. Thereafter, the mixture was washed five times with PBS-T (200 μl/well), TMB substrate solution was added (100 μl/well), and the mixture was incubated at room temperature for 10-15 min. Thereafter, a reaction quenching liquid (2N sulfuric acid solution) was added (50 μl/well) to discontinue a color developing reaction, and the absorbance (OD Value=450 nm) was measured by a microplate reader.
Measurement Method of Concentration of anti-OVA-specific IgG1 Subclass Antibody and anti-OVA-specific IgG2a Subclass Antibody
To a 96 well plate was added 5 μg/ml OVA at 100 μl/well, and the mixture was incubated at 4° C. overnight. After incubation, the mixture was washed three times with 200 μl of PBS-T (PBS+0.05% (v/v) Tween 20) per well, and blocked with 100 μl of 5% FCS/PBS solution per well at room temperature for 1 to for 2 hr. […] When an anti-OVA-specific IgG2a subclass antibody was measured, the standard of an anti-OVA-specific IgG2a subclass antibody was added at 50 ng/ml, 25 ng/ml, 12,5 ng/ml, 6.25 ng/ml, 3.125 ng/ml, 1.56 ng/ml, 0.781 ng/ml, 0.391 ng/ml, 0.195 ng/ml, 0.098 ng/ml, 0.049 ng/ml, 0 ng/ml, per 1 well. […] Thereafter, a reaction quenching liquid (2N sulfuric acid solution) was added (50 μl/well) to discontinue a color developing reaction, and the absorbance (OD Value=450 nm) was measured by a microplate reader. A standard curve was drawn from the measured OD values, and the concentration was calculated.

Assay [2] relates to IFN-γ. Description: Th1 response: IFN-γ production from lymph node cells of immunized mice restimulated with OVA. The note with it: Example 10; s.c. OVA 10 μg + 0.256 μmol in 5% αCD saline (Addavax 1:1); groin lymph node ten days later; 0.1-100 μg OVA, 40 hr, ELISA. On the procedure:
(§1) Ten days later, groin lymph node was collected from all mice of the above-mentioned (1) to (4), lymph node cells were isolated and cultured in 10% FBS-containing RPMI1640 medium. Thereto was added 0.1 μg, 1 μg, 10 μg, 100 μg of OVA, respectively, 40 hr later, cell supernatant was recovered, and IFN-γ and IL-4 in the supernatant were measured by ELISA.
On the technique in general: In an ELISA, binding on a coated surface is turned into a signal by an enzyme label.

Assay [3] relates to IL-4. The assay can be described thus: Th2 response: IL-4 production from lymph node cells of immunized mice restimulated with OVA. The note with it: Example 10; s.c. OVA 10 μg + 0.256 μmol in 5% αCD saline (Addavax 1:1); groin lymph node ten days later; 0.1-100 μg OVA, 40 hr, ELISA. On the procedure: as §1
Where [4] appears, read: Example 2, serum sample of Example 1.

With `CCCCCCCCCCCCCCCC(=O)NC(=N)NCCCCN` [SZ62, N-hexadecanoylagmatine], in assay [1] (setting [4]), the “adjuvant activity (IgG2a) compared with Alum” value is “equivalent to that of Alum”. In addition, the “anti-OVA-specific IgG2a subclass antibody production as compared to the OVA single administration group” value in assay [1] (setting [4]) was “significantly increased”; in assay [1] (Example 21, s.c., SZ62 0.256 μmol in 5% αCD saline, CpG 5 μg, MPL 5 μg, Addavax 1:1, Alum, two weeks from secondary immunization) it was “tended to increase”. Further, the “IFN-γ production from lymph node cells” value in assay [2] is “increased in an OVA volume dependent manner”. The “IL-4 production from lymph node cells” value in assay [3] was “did not show an increase”.
